# Results published in patent publication US6277882A, “Utilization of alkyl hydrogen fumarates for treating psoriasis, psoriatic arthritis, neurodermatitis and regional enteritis” (priority 1998, dated 2001).
# Counter-ions that a name gives are not always drawn.
# Assays:
# [1] = Pharmaceutical equivalency: comparison of pharmacokinetic data (methyl hydrogen fumarate level); conditions: rat, in vivo, 100 mg/kg, dosage 100 mg/kg body-wt.
# in vivo = conditions: rat, oral administration; for LD50: in vivo, po
# Method: Before the clinical trial, the acute toxicity of methyl hydrogen fumarate was tested by oral administration to rats.
# Acute toxicity on rats (oral administration)
# Ehrlich ascites tumour = conditions: mice; cited from earlier work
# [2] = test system: toxic effects of Mitomycin C and Aflatoxin; conditions: cited from earlier work
# psoriasis = conditions: cited from earlier work
# microbes = conditions: cited from earlier work
# phosphoslipase A2 = conditions: cited from earlier work
# [3] = high dosages; parenteral, dermal and particularly oral route; cited from earlier work
compound,measurement,setting,value
COC(=O)/C=C/C(=O)O.[Ca] [Methyl hydrogen fumarate calcium salt],Cmax,[1]; female,107 µg/mL
same,Cmax,[1]; male,51.3 µg/mL
"COC(=O)/C=C/C(=O)O [Methyl hydrogen fumarate, methyl hydrogen fumarate]",LD50,in vivo; female,1780 mg/kg
same,LD50,in vivo; male,2610 mg/kg
same,Lowest lethal dose in mg/kg,in vivo; female,"1,470.0 mg/kg"
same,Lowest lethal dose in mg/kg,in vivo; male,"2,150.0 mg/kg"
same,Cmax,[1]; female,84.8 µg/mL
same,Cmax,[1]; male,69.9 µg/mL
O=C(O)/C=C/C(=O)O [fumaric acid],growth of the Ehrlich ascites tumour,Ehrlich ascites tumour,inhibits the growth of the Ehrlich ascites tumour in mice
same,toxic effects of Mitomycin C and Aflatoxin,[2],reduces the toxic effects of Mitomycin C and Aflatoxin
same,anti-psoriatic effect,psoriasis,anti-psoriatic
same,antimicrobial effect,microbes,antimicrobial effect
same,stimulation of phosphoslipase A2,phosphoslipase A2,stimulated
O=C(O)/C(O)=C(\O)C(=O)O [dihydroxy fumaric acid],rate of side effects and toxicity,[3],unacceptable rate of side effects and high toxicity
NC(=O)/C=C/C(N)=O [fumaramide],rate of side effects and toxicity,[3],unacceptable rate of side effects and high toxicity
N#C/C=C/C#N [fumaronitrile],rate of side effects and toxicity,[3],unacceptable rate of side effects and high toxicity
